Data as given in patent US9364450B2, “Clenbuterol for use in treatment of autism” (STOW[…]. CELESTYNA, priority 2011, dated 2016).

Experiment: Administration of clenbuterol to patients with autistic symptoms (case examples)
Type: in vivo, autistic children
Description: A patient with autistic symptoms in the form of disorders of social integration, verbal and non-verbal communication, play disorders and concomitant anxiety, especially when changing environment, was administered clenbuterol at a dose of ¼ tablet containing 20 μg of clenbuterol once daily for a period of 3 months.
A patient with pediatric autism and cerebral palsy was administered the medication at a dose of ¼ of 20 μg tablet twice daily for a period of 12 months.
A patient with early pediatric autism, psychomotor hyperactivity syndrome and speech development delay was administered clenbuterol at a dose of ¼ of 20 μg tablet once daily for a period of 12 months.
It has been assumed that clenbuterol, modulating the brain neurotransmitter systems, affects also the endocrine and immunological system. As a result, alleviation of communication disorders and improved contact with surroundings is observed in autistic children.

CC(C)(C)NCC(O)c1cc(Cl)c(N)c(Cl)c1 (racemic) [clenbuterol, (RS)-1-(4-amino-3,5-dichlorophenyl)-2-(tert-butylamino)ethanol]
Overall effects observed in autistic children (administration at very small doses to autistic children): Improved contact with surroundings, better concentration, improved ability to plan a specific task, improved understanding, calming, and reduced psychomotor anxiety were observed | Effect on functional disorders related to ASD (administration of effective amounts of clenbuterol or its pharmaceutically effective salt): seems to practically alleviate functional disorders related to ASD | Adverse effects (long-term administration of clenbuterol or its pharmaceutically acceptable salt): no adverse effects associated with medications previously used in treatment of autism were observed | Change in autistic symptoms after therapy (interest in environment, contact with surroundings, anxiety) (patient with autistic symptoms, 1/4 tablet containing 20 μg once daily for 3 months): increased interest in the environment was observed; the child's contact with surroundings improved and its anxiety symptoms decreased | Change in autistic symptoms after treatment (speech expression, psychomotor anxiety, grimacing) (patient with early pediatric autism, psychomotor hyperactivity syndrome and speech development delay, 1/4 of 20 μg tablet once daily for 12 months): Improvement in speech expression was achieved as well as reduction of psychomotor anxiety and grimacing | Change in autistic symptoms after treatment (understanding, concentration, attention, speech) (patient with pediatric autism and cerebral palsy, 1/4 of 20 μg tablet twice daily for 12 months): improvement with respect to understanding, concentration, attention, and speech
